Data on three molecules can be found in patent US7087631B2, “Aryltetrazole compounds, and compositions thereof” (Inotek Pharmaceuticals Corporation, priority 2002, dated 2006).

The test system of one experiment is severe hemorrhagic shock. The following applies: canine, cited from earlier work; for benefit (survival): given alone after shock had been produced.
The subject of a further experiment is hemorrhagic shock. The following applies: canine model of hemorrhagic shock; cited from earlier work.
Another experiment has as its target xanthine oxidase (Homo sapiens, UniProt P47989). Briefly: Xanthine oxidase inhibitory activity, 96 well plate, kinetic reading at 295 nm. In kind it is biochemical.
Experiment [1] deals with collagen-induced arthritis. As to the kind of experiment: Collagen-induced arthritis. In kind it is in vivo. The conditions noted are these: mice; for % Incidence / Mean Severity: collagen-induced arthritis. The method, then: An illustrative 5-Aryltetrazole Compound exerts protective effects in a model of collagen-induced arthritis in mice. Results are expressed as incidence and severity over time. Studies were conducted as described in Inflamm. Res. 50(11):561-569 (2001). The results illustrate that the administration of Compound JO, an illustrative 5-Aryltetrazole Compound, reduced incidence of collagen-induced arthritis in mice.

In experiment [2] the test system is thioacetamide model of hepatic failure. As to the kind of experiment: Toxic liver injury model (thioacetamide model of hepatic failure), serum AST. The experiment is classed as in vivo. The conditions noted are these: mice, thioacetamide 400 mg/kg i.p., mean ±SEM (n=7-10). The method, then: Illustrative 5-Aryltetrazole Compounds exert hepatoprotective effects in a thioacetamide model of hepatic failure. […] […] Results are expressed as percent inhibtion, mean ±SEM (n=7-10). Studies were conducted as described in Biochim. Biophys. Acta. 1536(1):21-30 (2001).

A further experiment relates to gut ischemia reperfusion. Briefly: Gut ischemia reperfusion-induced hyperpermeability and mortality. In kind it is in vivo. The following applies: mice, 30 mg/kg. The method, then:
Illustrative 5-Aryltetrazole Compounds exert protective effects in various models of organ ischemia and reperfusion. For example, intraperitoneal administration of illustrative 5-Aryltetrazole Compounds retards the progression of gut ischemia reperfusion-induced hyperpermeability and mortality in mice. Results are expressed as % decrease in gut hyperpermeability and as mortality as observed after 6 hours and 2 days of reperfusion. Studies were conducted as described in Shock, 14(2): 134-141 (2000). There was a notable dose-dependent effect on gut hyperpermeability and there was an improvement in survival rate, as tested at the highest dose of both levels.

Chain of xanthine oxidase (P47989 whole entry, species assumed): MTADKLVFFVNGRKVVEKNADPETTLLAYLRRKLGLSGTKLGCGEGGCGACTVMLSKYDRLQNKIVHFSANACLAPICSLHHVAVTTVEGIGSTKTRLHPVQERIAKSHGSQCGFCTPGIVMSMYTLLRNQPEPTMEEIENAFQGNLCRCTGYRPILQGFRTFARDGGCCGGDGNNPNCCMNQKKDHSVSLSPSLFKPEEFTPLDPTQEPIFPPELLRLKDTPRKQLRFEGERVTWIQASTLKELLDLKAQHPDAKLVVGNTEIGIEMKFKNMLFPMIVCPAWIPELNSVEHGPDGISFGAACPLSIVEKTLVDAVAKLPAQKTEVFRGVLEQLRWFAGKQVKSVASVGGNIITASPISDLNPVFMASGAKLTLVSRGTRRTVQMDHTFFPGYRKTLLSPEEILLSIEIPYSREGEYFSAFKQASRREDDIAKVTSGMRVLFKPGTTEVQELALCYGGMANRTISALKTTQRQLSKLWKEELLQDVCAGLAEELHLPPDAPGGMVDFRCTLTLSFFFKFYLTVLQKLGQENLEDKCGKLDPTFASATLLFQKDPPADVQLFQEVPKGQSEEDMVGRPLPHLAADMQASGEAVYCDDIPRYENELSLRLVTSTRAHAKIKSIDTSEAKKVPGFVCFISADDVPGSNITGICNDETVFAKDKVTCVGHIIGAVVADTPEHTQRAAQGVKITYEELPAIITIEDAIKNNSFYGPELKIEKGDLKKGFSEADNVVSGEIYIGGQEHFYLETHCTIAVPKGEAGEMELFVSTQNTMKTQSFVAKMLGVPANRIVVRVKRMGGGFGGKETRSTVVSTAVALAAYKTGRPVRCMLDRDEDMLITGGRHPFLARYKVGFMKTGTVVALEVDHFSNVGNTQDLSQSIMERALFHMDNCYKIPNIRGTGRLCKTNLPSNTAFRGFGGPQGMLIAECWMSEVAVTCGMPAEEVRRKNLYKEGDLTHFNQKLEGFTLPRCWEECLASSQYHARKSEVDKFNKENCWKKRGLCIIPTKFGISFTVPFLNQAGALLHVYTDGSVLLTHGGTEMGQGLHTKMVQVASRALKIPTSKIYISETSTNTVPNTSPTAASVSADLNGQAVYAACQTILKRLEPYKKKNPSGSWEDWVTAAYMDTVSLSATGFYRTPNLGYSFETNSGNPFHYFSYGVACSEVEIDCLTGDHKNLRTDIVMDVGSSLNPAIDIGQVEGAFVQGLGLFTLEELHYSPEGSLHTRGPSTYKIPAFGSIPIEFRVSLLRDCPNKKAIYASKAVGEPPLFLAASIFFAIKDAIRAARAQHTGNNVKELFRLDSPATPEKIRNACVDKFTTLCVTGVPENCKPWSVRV

For the molecule `O=c1[nH]cnc2nc[nH]c12` [hypoxanthine], the “benefit (survival)” value in the experiment with severe hemorrhagic shock is “no benefit”.

For the molecule `Oc1ncnc2[nH]ncc12` [allopurinol], the “benefit (survival)” value with severe hemorrhagic shock is given as “no benefit”. The increase in survival with severe hemorrhagic shock (pre-treatment) was 6 fold. Also, the “survival (result in words)” value with hemorrhagic shock is given as “significantly improved survival”.

Take `CC(C)(C)c1ccc(NC(=O)c2ccc(-c3nnn[nH]3)cc2)cc1` [Compound JO]: the entries for the “PERCENT XANTHINE OXIDASE INHIBITION” value on xanthine oxidase (compound concentration 0.03 μM), at xanthine oxidase (compound concentration 0.1 μM) and at xanthine oxidase (compound concentration 1 μM) were 18%, 36% and 83%, respectively. In addition, the “incidence of collagen-induced arthritis (result in words)” value in experiment [1] (after 33 days, versus untreated mice) is “significant decrease”. For the same molecule, the “% Incidence” value is reported as 20% in experiment [1] (day 25); 35% in experiment [1] (day 27); 45% in experiment [1] (day 29); 75% in experiment [1] (day 31); 85% in experiment [1] (day 33). Besides, the “Mean Severity” value in experiment [1] (day 25) is 0; in experiment [1] (day 27) it was 0; in experiment [1] (day 29), 3; in experiment [1] (day 31), 8; in experiment [1] (day 33), 8. The “collagen-induced arthritis (result in words)” value in experiment [1] (summary) is on record as “inhibits collagen-induced arthritis”. The figures for the “Percent Inhibition of Serum AST Levels” value in experiment [2] (single oral dose 3 mg/kg) and in experiment [2] (single oral dose 10 mg/kg) were 24 ± 9% and 36 ± 12%, respectively. Moreover, in the experiment with gut ischemia reperfusion (6 hours of reperfusion, control 60), the “Survival % (6 h)” value was 87%. In the experiment with gut ischemia reperfusion (2 days of reperfusion, control 0), the “Survival % (2 days)” value was found to be 13%. Also, the “Gut Permeability” value with gut ischemia reperfusion (intraperitoneal, control 100%) was found to be 39%.
